The numbers were not newly measured in US5776505A (Bayer Aktiengesellschaft, priority 1995, dated 1998), which cites them from elsewhere.

The conditions of the series: cross-over study; with magnesium hydroxide.

Regarding `CC(C)Cc1ccc(C(C)C(=O)O)cc1` (stereo not shown) [ibuprofen], the “plasma concentration as a result of addition of magnesium hydroxide” value is “higher plasma concentration”.
